pIC50: −log10 of the molar value. Strand notation (5' to 3'): a small letter for the sugar, then the base; units joined by * are phosphorothioate-linked, units joined directly phosphodiester-linked; [ ] holds rarer units or linkages, { } end groups; capitals alone tell only the bases. e = 2'-O-(2-methoxyethyl) (MOE); k = constrained ethyl (cEt); [5mC] = 5-methylcytosine; d = 2'-deoxy (DNA)
How the values were obtained:
Assay type in all cases: cell-based
human PKK mRNA [1] = experiment: Antisense inhibition of human PKK mRNA in HepaRG cells, 3,000 nM (Example 1); conditions: relative to untreated control cells
Description: Antisense oligonucleotides were designed targeting a PKK nucleic acid and were tested for their effects on PKK mRNA in vitro. HepaRG™ cells, which are terminally differentiated hepatic cells derived from a human hepatic progenitor cell line and retain many characteristics of primary human hepatocytes (Lubberstedt M. et al., J. Pharmacol. Toxicol. Methods 2011 63: 59-68), were used in the screen.
The chimeric antisense oligonucleotides in the tables below were designed as 5-10-5 MOE gapmers. The gapmers are 20 nucleosides in length, wherein the central gap segment comprises of ten 2′-deoxynucleosides and is flanked by wing segments on the 5′ direction and the 3′ direction comprising five nucleosides each. Each nucleoside in the 5′ wing segment and each nucleoside in the 3′ wing segment has a 2′-O-methoxyethyl modification. The internucleoside linkages throughout each gapmer are phosphorothioate linkages. All cytosine residues throughout each gapmer are 5-methylcytosines. “Start site” indicates the 5′-most nucleoside to which the gapmer is targeted in the human gene sequence. “Stop site” indicates the 3′-most nucleoside to which the gapmer is targeted in the human gene sequence.
Cultured HepaRG™ cells at a density of 20,000 cells per well were transfected using electroporation with 3,000 nM antisense oligonucleotide. After a treatment period of approximately 24 hours, RNA was isolated from the cells and PKK mRNA levels were measured by quantitative real-time PCR. Human primer probe set RTS3454 (forward sequence […], designated herein as SEQ ID NO: 20; reverse sequence […], designated herein as SEQ ID NO: 21; probe sequence […], designated herein as SEQ ID NO: 22) was used to measure mRNA levels. PKK mRNA levels were adjusted according to total RNA content, as measured by RIBOGREEN®. The antisense oligonucleotides were tested in a series of experiments that had similar culture conditions. Results are presented as percent inhibition of PKK, relative to untreated control cells.

human PKK mRNA [2] = experiment: Dose-dependent antisense inhibition of human PKK in HepaRG cells, 0.11-3.00 uM (Example 6); conditions: for pIC50: 0.11-3.00 μM; for percent inhibition of PKK mRNA, 0.11 μM / percent inhibition of PKK mRNA, 0.33 μM / percent inhibition of PKK mRNA, 1.00 μM / percent inhibition of PKK mRNA, 3.00 μM: electroporation, approx. 16 hours, relative to untreated control cells
Outline: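 Antisense oligonucleotides were tested over 0.11–3.00 μM, delivered by electroporation, with readout after roughly 16 h. Human PKK transcript was measured by real-time PCR (set RTS3454) and adjusted to RIBOGREEN total RNA, giving half-maximal inhibitory concentrations.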

human PKK mRNA [3] = experiment: Antisense inhibition of human PKK mRNA in HepaRG cells, 1,000 nM, MOE/deoxy/cEt oligonucleotides (Example 3)
Outline: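 Readout is percent PKK mRNA reduction against untreated controls, by real-time PCR (RTS3454) adjusted for total RNA via RIBOGREEN. Oligonucleotides, phosphorothioate gapmers of 16 nucleosides with cEt, MOE and deoxy sugars, were delivered at 1,000 nM by electroporation to 20,000 HepaRG cells/well for roughly 24 h.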

[4] = Table 1, PKK mRNA, HepaRG cells, 3,000 nM, electroporation, ~24 h
[5] = Table 3, HepaRG cells, electroporation with 3,000 nM antisense oligonucleotide, approx. 24 hours, PKK mRNA by RT-PCR (RTS3454)
[6] = Table 4, HepaRG cells, electroporation with 3,000 nM antisense oligonucleotide, approx. 24 hours, PKK mRNA by RT-PCR (RTS3454)
[7] = Table 22 experiment, HepaRG cells, electroporation with 1,000 nM antisense oligonucleotide, approx. 24 hours, PKK mRNA by RT-PCR (RTS3454), relative to untreated control cells
[8] = HepaRG cells, 1,000 nM antisense oligonucleotide, Table 29

Substance: 530982 (antisense eT*eA*eA*eA*eG*dT*dT*d[5mC]*dT*dT*dT*dT*dG*d[5mC]*dA*eG*eG*eT*eT*eA) [compound 530982]
- % inhibition (human PKK mRNA [1]; [4]): 0%

Substance: 531115 (antisense eT*e[5mC]*e[5mC]*eT*eA*dA*dA*dT*dA*dG*dG*dA*dA*d[5mC]*dA*eA*eA*eG*eT*eA) [compound 531115]
- % inhibition (human PKK mRNA [1]; [5]): 0%

Substance: 531182 (antisense eA*eT*eA*eA*eT*d[5mC]*dA*dT*dG*dA*dT*dT*dT*dA*dT*eT*eT*eT*eG*e[5mC]) [compound 531182]
- % inhibition (human PKK mRNA [1]; [6]): 34%

Substance: 531097 (eA*e[5mC]*e[5mC]*eA*eA*dG*d[5mC]*dT*d[5mC]*dA*dG*d[5mC]*d[5mC]*dT*d[5mC]*e[5mC]*eA*eA*e[5mC]*eT; antisense) [compound 531097]
- % inhibition (human PKK mRNA [1]; [5]): 41%

Substance: 530949 (antisense eG*eG*eT*eG*eT*dA*d[5mC]*dA*dT*dG*dG*dA*dA*dG*d[5mC]*eT*eA*e[5mC]*eA*eT) [compound 530949]
- % inhibition (human PKK mRNA [1]; [4]): 31%

Substance: 530941 (antisense eA*eA*e[5mC]*eT*eG*dT*dA*dG*d[5mC]*dA*dA*dA*d[5mC]*dA*dA*eG*eG*eA*eA*eA) [compound 530941]
- % inhibition (human PKK mRNA [1]; [4]): 22%

Substance: 531178 (antisense eA*e[5mC]*e[5mC]*eA*e[5mC]*dA*dG*dG*dA*dA*dA*d[5mC]*dT*dG*dT*eA*eG*e[5mC]*eA*eA) [compound 531178]
- % inhibition (human PKK mRNA [1]; [6]): 72%

Substance: 547849 (antisense eA*eA*kT*dG*dT*d[5mC]*dT*d[5mC]*dG*dA*dT*dG*dG*k[5mC]*kA*eA) [compound 547849]
- pIC50 (human PKK mRNA [2]): 6.52
- percent inhibition of PKK mRNA, 0.11 μM (human PKK mRNA [2]): 36%
- percent inhibition of PKK mRNA, 0.33 μM (human PKK mRNA [2]): 52%
- percent inhibition of PKK mRNA, 1.00 μM (human PKK mRNA [2]): 67%
- % inhibition (human PKK mRNA [3]; Table 20, HepaRG cells, electroporation with 1,000 nM antisense oligonucleotide, approximately 24 hours, PKK mRNA by RT-PCR (RTS3454), relative to untreated control cells): 79%
- % inhibition (human PKK mRNA [3]; [7]): 90%

Substance: 547857 (antisense e[5mC]*eT*k[5mC]*dA*dT*dA*dT*d[5mC]*dA*dA*d[5mC]*dT*d[5mC]*k[5mC]*kT*eT) [compound 547857]
- pIC50 (human PKK mRNA [2]): 6.70
- percent inhibition of PKK mRNA, 0.11 μM (human PKK mRNA [2]): 36%
- percent inhibition of PKK mRNA, 0.33 μM (human PKK mRNA [2]): 66%
- percent inhibition of PKK mRNA, 1.00 μM (human PKK mRNA [2]): 77%
- percent inhibition of PKK mRNA, 3.00 μM (human PKK mRNA [2]): 93%
- % inhibition (human PKK mRNA [3]; [7]): 84%

Substance: 548106 (antisense e[5mC]*e[5mC]*kA*dT*dG*dT*dA*d[5mC]*dT*d[5mC]*dA*dG*d[5mC]*kG*kA*e[5mC]) [compound 548106]
- percent inhibition of PKK mRNA, 0.11 μM (human PKK mRNA [2]): 53%
- percent inhibition of PKK mRNA, 0.33 μM (human PKK mRNA [2]): 54%
- percent inhibition of PKK mRNA, 1.00 μM (human PKK mRNA [2]): 82%
- percent inhibition of PKK mRNA, 3.00 μM (human PKK mRNA [2]): 94%
- % inhibition (human PKK mRNA [3]; Table 19, HepaRG cells, electroporation with 1,000 nM antisense oligonucleotide, approximately 24 hours, PKK mRNA by RT-PCR (RTS3454), relative to untreated control cells): 79%

Substance: 548570 (eA*eT*kG*d[5mC]*d[5mC]*dT*dT*dG*dT*dG*d[5mC]*d[5mC]*dT*kA*kT*eT; antisense) [compound 548570]
- pIC50 (human PKK mRNA [2]): 6.40
- percent inhibition of PKK mRNA, 0.11 μM (human PKK mRNA [2]): 20%
- percent inhibition of PKK mRNA, 0.33 μM (human PKK mRNA [2]): 40%
- percent inhibition of PKK mRNA, 1.00 μM (human PKK mRNA [2]): 70%
- percent inhibition of PKK mRNA, 3.00 μM (human PKK mRNA [2]): 94%
- % inhibition (human PKK mRNA [3]; [8]): 74%

Substance: 548348 (antisense eT*eG*kA*dG*dT*dG*dA*dT*dG*d[5mC]*d[5mC]*dT*dT*k[5mC]*k[5mC]*eA) [compound 548348]
- pIC50 (human PKK mRNA [2]): 6.40
- percent inhibition of PKK mRNA, 0.11 μM (human PKK mRNA [2]): 19%
- percent inhibition of PKK mRNA, 0.33 μM (human PKK mRNA [2]): 46%
- percent inhibition of PKK mRNA, 1.00 μM (human PKK mRNA [2]): 67%
- percent inhibition of PKK mRNA, 3.00 μM (human PKK mRNA [2]): 91%
- % inhibition (human PKK mRNA [3]; Table 27, HepaRG cells, 1,000 nM antisense oligonucleotide, human PKK mRNA): 82%

Substance: 547979 (antisense eG*eT*k[5mC]*dT*d[5mC]*dT*dT*dG*dG*d[5mC]*dA*dA*dA*k[5mC]*kA*eT) [compound 547979]
- percent inhibition of PKK mRNA, 0.11 μM (human PKK mRNA [2]): 56%
- percent inhibition of PKK mRNA, 0.33 μM (human PKK mRNA [2]): 58%
- percent inhibition of PKK mRNA, 1.00 μM (human PKK mRNA [2]): 94%
- percent inhibition of PKK mRNA, 3.00 μM (human PKK mRNA [2]): 97%
- % inhibition (human PKK mRNA [3]; HepaRG cells, electroporation with 1,000 nM antisense oligonucleotide, approximately 24 hours, primer probe set RTS3454, relative to untreated control cells, experiment of Table 23): 77%

Substance: 548047 (eG*eA*kT*dA*dT*d[5mC]*dA*dT*dG*dA*dT*dT*d[5mC]*k[5mC]*k[5mC]*eT; antisense) [compound 548047]
- percent inhibition of PKK mRNA, 0.11 μM (human PKK mRNA [2]): 50%
- percent inhibition of PKK mRNA, 0.33 μM (human PKK mRNA [2]): 62%
- percent inhibition of PKK mRNA, 1.00 μM (human PKK mRNA [2]): 76%
- percent inhibition of PKK mRNA, 3.00 μM (human PKK mRNA [2]): 95%
- % inhibition (human PKK mRNA [3]; HepaRG cells, electroporation with 1,000 nM antisense oligonucleotide, approximately 24 hours, primer probe set RTS3454, relative to untreated control cells, experiment of Table 24): 83%

Substance: 548557 (antisense eG*eT*kT*dA*d[5mC]*dT*d[5mC]*dT*dG*dT*dG*dA*dT*k[5mC]*k[5mC]*eA) [compound 548557]
- pIC50 (human PKK mRNA [2]): 6.40
- percent inhibition of PKK mRNA, 0.11 μM (human PKK mRNA [2]): 5%
- percent inhibition of PKK mRNA, 0.33 μM (human PKK mRNA [2]): 47%
- percent inhibition of PKK mRNA, 1.00 μM (human PKK mRNA [2]): 82%
- percent inhibition of PKK mRNA, 3.00 μM (human PKK mRNA [2]): 95%
- % inhibition (human PKK mRNA [3]; [8]): 81%
